Data taken from patent US20100056519A1, “COMPOSITION AND METHOD FOR REDUCING PLATELET ACTIVATION AND FOR THE TREATMENT OF THROMBOTIC EVENTS” (priority 2008, published 2010).

Key:
Assay type in all cases: cell-based, human
LAMP-1 (CD107a) = assay: Unstimulated whole blood flow cytometry, LAMP-1; conditions: for LAMP-1 (CD107a), Mean Fluorescence Intensity: unstimulated, Mean ± SD
Procedure: (§1) The methodology employed was conventional aggregation induced by 5 μM ADP, 1 μg/ml collagen, 10 μM TRAP, whole blood aggregation with 1 μg/ml collagen, Ultegra, and PFA-100 Analyzers, expression of 14 intact, and TRAP-stimulated major receptors by whole blood flow cytometry were utilized to assess platelet activity after preincubation with escalating concentrations of E5555 (20 ng/ml, 50 ng/ml, and 100 ng/ml). The experiments were performed in healthy volunteers, CAD patients treated with ASA, and CAD patients treated with ASA and clopidogrel combination (n=10, for each group).
(§2) An Informed Consent was obtained from all volunteers. Drug users were excluded from data analysis. The study was approved by Quorum Institutional Review Board. All subjects underwent blood sampling after at least 30 minutes of rest and two or more hours of fasting. Blood (28 ml) was drawn between 8 and 10 a.m. in order to avoid any diurnal influence and sampled from an antecubital vein using a 21-gauge butterfly needle containing 3.2% sodium citrate (1:9 volume) after having discarded the first 1.5 ml of free running blood. Four Vacutainer tubes (7.0 ml) were collected for a total of 28 ml of whole blood-citrate mixture from each study participant. Chronologically, blood samples were delivered to the core laboratory facility within 45 minutes after drawing. Then all tubes of blood-citrate mixture were pooled. One portion of pooled blood (5 ml) was kept as an internal control and pretreated with the vehicle. The remaining blood (23 ml) was used for the in vitro exposure to E5555 at concentrations of 20 ng/ml, 50 ng/ml, and 100 ng/ml. […] The platelet aggregation studies, Rapid Analyzers measures, and flow cytometry preparations were initiated within no more than 110 minutes following the blood draw, incubation with the drug, and preparation of the samples.
(§3) Formation of platelet-leukocyte aggregates was assessed by dual labeling with pan-platelet marker (CD151), and then with CD14, the macrophage receptor for endotoxin lipopolysaccharides (PharMingen, and Coulter, San Diego, Calif., USA). The tubes were then covered with aluminum foil and incubated at 37° C. for 40 minutes with gentle rotation. After incubation, samples were immediately analyzed on a Becton Dickinson FACScan flow cytometer. The instrument was set up to measure forward light scatter, and FITC fluorescence. All parameters were collected using four-decade logarithmic amplification. The data was retrieved in list mode files and then analyzed. P selectin was expressed as percent positive cells. Other antigens were expressed as log mean fluorescence intensity.

PECAM-1 (CD31) [1] = assay: Unstimulated whole blood flow cytometry, PECAM-1; conditions: for PECAM-1 (CD31), Mean Fluorescence Intensity: unstimulated, Mean ± SD
Procedure: as §1, §2, §3

PECAM-1 (CD31) [2] = assay: TRAP-stimulated whole blood flow cytometry, PECAM-1; conditions: Mean ± SD
Procedure: as §1, §2, §3
(§4) For flow cytometry (TRAP-stimulated) all of the above flow cytometry experiments were identically repeated utilizing prestimulation with 10 μmol/L TRAP for 5 minutes at 37° C. To determine statistics, a Paired Sign Test was used to define significance of differences between vehicle and E5555-treated groups. The Mann-Whitney U test was used to analyze nonparametric data. Normally distributed data were expressed as mean±standard error (m±SE), and skewed data as median (range). All P-values were two sided. All analysis was performed using the SPSS v9.0 program (SPSS Inc., Chicago, Ill.).

SPAN-12 = assay: TRAP-stimulated whole blood flow cytometry, SPAN-12; conditions: Mean ± SD
Procedure: as §1, §2, §3, §4

P-selectin (CD62p) = assay: Unstimulated whole blood flow cytometry, P-selectin; conditions: for P-selectin (CD62p), % positive cells: unstimulated, E5555 20 ng/ml, Mean ± SD
Procedure: as §1, §2, §3

[3] = overall summary, stimulation not stated
[4] = E5555 20 ng/ml, Patients (ASA + C)
[5] = E5555 50 ng/ml, Patients (ASA + C)
[6] = E5555 100 ng/ml, Patients (ASA + C)
[7] = E5555 100 ng/ml, Patients (ASA)

Br.CCOc1cc2c(c(F)c1OCC)C(=N)N(CC(=O)c1cc(N3CCOCC3)c(OC)c(C(C)(C)C)c1)C2 [E5555, 1-(3-tert-butyl-4-methoxy-5-morpholinophenyl)-2-(5,6-diethoxy-7-fluoro-1-imino-1,3-dihydro-2H-isoindol-2-yl)ethanone hydrobromide]
LAMP-1, effect in words (LAMP-1 (CD107a); [3]): not affected | LAMP-1 (CD107a), Mean Fluorescence Intensity (LAMP-1 (CD107a); [4]): 4.2 ± 1.6 MFI | LAMP-1 (CD107a), Mean Fluorescence Intensity (LAMP-1 (CD107a); E5555 20 ng/ml, Patients (ASA)): 4.3 ± 1.2 MFI | LAMP-1 (CD107a), Mean Fluorescence Intensity (LAMP-1 (CD107a); E5555 20 ng/ml, Volunteers): 4.7 ± 0.5 MFI | LAMP-1 (CD107a), Mean Fluorescence Intensity (LAMP-1 (CD107a); [5]): 4.7 ± 1.3 MFI | LAMP-1 (CD107a), Mean Fluorescence Intensity (LAMP-1 (CD107a); E5555 50 ng/ml, Patients (ASA)): 5.0 ± 1.7 MFI | LAMP-1 (CD107a), Mean Fluorescence Intensity (LAMP-1 (CD107a); E5555 50 ng/ml, Volunteers): 4.6 ± 0.6 MFI | LAMP-1 (CD107a), Mean Fluorescence Intensity (LAMP-1 (CD107a); [6]): 4.8 ± 1.4 MFI | LAMP-1 (CD107a), Mean Fluorescence Intensity (LAMP-1 (CD107a); [7]): 4.3 ± 1.5 MFI | LAMP-1 (CD107a), Mean Fluorescence Intensity (LAMP-1 (CD107a); E5555 100 ng/ml, Volunteers): 4.4 ± 1.0 MFI | PECAM-1 expression, effect in words (PECAM-1 (CD31) [1]; [3]): significant reduction | PECAM-1 (CD31), Mean Fluorescence Intensity (PECAM-1 (CD31) [1]; [4]): 55 ± 11 MFI | PECAM-1 (CD31), Mean Fluorescence Intensity (PECAM-1 (CD31) [1]; E5555 20 ng/ml, Patients (ASA)): 52 ± 9 MFI | PECAM-1 (CD31), Mean Fluorescence Intensity (PECAM-1 (CD31) [1]; E5555 20 ng/ml, Volunteers): 64 ± 10 MFI | PECAM-1 (CD31), Mean Fluorescence Intensity (PECAM-1 (CD31) [1]; [5]): 51 ± 9 MFI | PECAM-1 (CD31), Mean Fluorescence Intensity (PECAM-1 (CD31) [1]; E5555 50 ng/ml, Patients (ASA)): 53 ± 7 MFI | PECAM-1 (CD31), Mean Fluorescence Intensity (PECAM-1 (CD31) [1]; E5555 50 ng/ml, Volunteers): 60 ± 8 MFI | PECAM-1 (CD31), Mean Fluorescence Intensity (PECAM-1 (CD31) [1]; [6]): 54 ± 8 MFI | PECAM-1 (CD31), Mean Fluorescence Intensity (PECAM-1 (CD31) [1]; [7]): 57 ± 10 MFI | PECAM-1 (CD31), Mean Fluorescence Intensity (PECAM-1 (CD31) [1]; E5555 100 ng/ml, Volunteers): 64 ± 11 MFI | PECAM-1 (CD31), Mean Fluorescence Intensity (PECAM-1 (CD31) [2]; [4]): 58 ± 9 MFI | PECAM-1 (CD31), Mean Fluorescence Intensity (PECAM-1 (CD31) [2]; E5555 20 ng/ml, Patients (ASA)): 50 ± 6 MFI | PECAM-1 (CD31), Mean Fluorescence Intensity (PECAM-1 (CD31) [2]; E5555 20 ng/ml, Volunteers): 60 ± 9 MFI | PECAM-1 (CD31), Mean Fluorescence Intensity (PECAM-1 (CD31) [2]; [5]): 60 ± 7 MFI | PECAM-1 (CD31), Mean Fluorescence Intensity (PECAM-1 (CD31) [2]; E5555 50 ng/ml, Patients (ASA)): 54 ± 9 MFI | PECAM-1 (CD31), Mean Fluorescence Intensity (PECAM-1 (CD31) [2]; E5555 50 ng/ml, Volunteers): 55 ± 10 MFI | PECAM-1 (CD31), Mean Fluorescence Intensity (PECAM-1 (CD31) [2]; [6]): 57 ± 11 MFI | PECAM-1 (CD31), Mean Fluorescence Intensity (PECAM-1 (CD31) [2]; [7]): 52 ± 12 MFI | PECAM-1 (CD31), Mean Fluorescence Intensity (PECAM-1 (CD31) [2]; E5555 100 ng/ml, Volunteers): 60 ± 7 MFI | SPAN-12, Mean Fluorescence Intensity (SPAN-12; [4]): 9 ± 2 MFI | SPAN-12, Mean Fluorescence Intensity (SPAN-12; E5555 20 ng/ml, Patients (ASA)): 12 ± 4 MFI | SPAN-12, Mean Fluorescence Intensity (SPAN-12; E5555 20 ng/ml, Volunteers): 20 ± 3 MFI | SPAN-12, Mean Fluorescence Intensity (SPAN-12; [5]): 9 ± 3 MFI | SPAN-12, Mean Fluorescence Intensity (SPAN-12; E5555 50 ng/ml, Patients (ASA)): 9 ± 4 MFI | SPAN-12, Mean Fluorescence Intensity (SPAN-12; E5555 50 ng/ml, Volunteers): 17 ± 5 MFI | SPAN-12, Mean Fluorescence Intensity (SPAN-12; [6]): 11 ± 3 MFI | SPAN-12, Mean Fluorescence Intensity (SPAN-12; [7]): 10 ± 6 MFI | SPAN-12, Mean Fluorescence Intensity (SPAN-12; E5555 100 ng/ml, Volunteers): 17 ± 4 MFI | P selectin, effect in words (P-selectin (CD62p); [3]): not affected | P-selectin (CD62p), % positive cells (P-selectin (CD62p); Patients (ASA + C)): 7.6 ± 2.0 % positive cells | P-selectin (CD62p), % positive cells (P-selectin (CD62p); Patients (ASA)): 9.7 ± 1.5 % positive cells | P-selectin (CD62p), % positive cells (P-selectin (CD62p); Volunteers): 10.8 ± 2.0 % positive cells
